In US8211897B2, “Inhibitors of cathepsin B” (ViroBay, Inc., priority 2008, dated 2012):

What was measured:
Human Liver Cathepsin B = biological target: T1, Human Liver Cathepsin B (Homo sapiens, UniProt P07858); assay: Biochemical assay of inhibition of Cathepsin B enzymatic activity; details: 20 uM Boc-Leu-Arg-Arg-AMC, pH 5.5, 15 minutes preincubation, 30 minutes at 25° C.
T1 construct: from tissue; host or cells: human liver
Method: The test compound of Formula (I) was dissolved in dimethylsulfoxide (DMSO) and diluted in assay buffer. An 8 point dose response curve was completed in order to evaluate the IC50 value of inhibition of Cathepsin B enzymatic activity (IC50 is defined as the concentration which inhibited 50% of maximal enzyme activity). The assay protocol was adapted from Barrett, 1980. Human Liver Cathepsin B was incubated in assay buffer (50 mM sodium acetate, pH 5.5, 1 mM dithiothreitol (DTT), 2 mM ethylenediaminetetraacetic acid (EDTA) with 20 uM peptide substrate (Boc-Leu-Arg-Arg-AMC) with the compounds diluted from DMSO stocks or DMSO vehicle alone. Final DMSO concentration was retained at 1% in the assay. The test compound was preincubated with the enzyme for 15 minutes at 25° C. Reaction was started with the addition of substrate, and allowed to proceed for 30 minutes at 25° C. Substrate cleavage was monitored with spectrofluorimetric quantitation of methylcoumarylamide (AMC).

[1] = biological target: T2, Cathepsin B in human cells (HUVECs) (Homo sapiens, UniProt P07858); assay: Cellular activity-based probe (whole-cell enzyme occupancy) assay; details: serum-free media, 4 hours compound treatment, 125I-DMK probe 1 hour
T2 construct: endogenous in cells; host or cells: HUVEC (human umbilical vein endothelial cells)
Method: Activity of Cathepsin B in cells was measured with the use of an activity-based radioactive probe in a whole-cell enzyme occupancy assay. This method was used to determine the specific potencies of compounds on Cathepsin B in the intracellular environment. The probe used was a peptide diazomethylketone which binds to Cathepsins, including Cathepsin B, potently and irreversibly. This cell-permeable probe binds to active Cathepsin B and binding can be quantified to determine the level of Cathepsin B activity in cells. Cathepsin B enzyme in cells which has bound to an inhibitor is not active and as such not available for binding by the activity-based probe.
The method used was based on a modification of a published method (Falgueyret J-P, et al. 2004. Anal. Biochem. 335:218-227). Human umbilical vein endothelial cells (HUVECs) were grown in 24 well plates in standard growth conditions. […]
To analyze probe-labeled proteins, samples were boiled for 5 minutes and analyzed by SDS-PAGE. […] The band intensities on the autoradiographs were determined. Autoradiographs were scanned using a Microtek ScanMakeri900 scanner and bands quantified with a program such as the BioRad Imaging program QuantityOne or ImageJ. Compound potencies were calculated as a % of the no inhibitor control and IC50 values were extrapolated from the dose-response curves using a suitable program like GraphPad Prism.

[2] = system: Liver fibrosis induced in mice by carbon tetrachloride; assay: Carbon tetrachloride-induced liver fibrosis model; type: in vivo; details: CCl4 fibrosis, once daily from day 12, 250 mg/kg and 50 mg/kg, terminal day 33
Method: Liver fibrosis was induced in mice by intraperitoneal administration of carbon tetrachloride every 5 days over a 28-day period (days 0-28). On day 11, plasma alanine aminotransferase (ALT) levels and aspertate aminotransferase (AST) were measured from representative mice to confirm liver damage. (2S,4R)-1-((S)-(3-tert-butylureido)-3,3-dimethylbutanoyl]-N-((S)-1-cyclopropylamino)-1,2-dioxohexan-3-yl)-4-(7-methoxy-2-(1H-pyrazol-1-yl)-quinolin-4-yloxy)pyrrolidine-2-carboxamide was administered therapeutically, once daily, starting on day 12, […]. On day 33, terminal plasma AST and ALT, liver hydroxyproline, PK/PD, and histology were assessed.

IC50 (Human Liver Cathepsin B) [nM] | Compound | other results
83 | CCC[C@H](NC(=O)[C@@H]1CC(Oc2cc(-n3cccn3)nc3cc(OC)ccc23)CN1C(=O)[C@@H](NC(=O)NCC1CC1)C(C)(C)C)C(=O)C(=O)NC1CC1 (stereo partly shown) | –
86 | CCC[C@H](NC(=O)[C@@H]1CC(Oc2cc(-c3ccccn3)nc3ccsc23)CN1C(=O)[C@@H](NC(=O)NC(C)(C)C)C(C)(C)C)C(=O)C(=O)NC1CC1 (stereo partly shown) | –
< 500 | CCC[C@H](NC(=O)[C@@H]1CC(Oc2cc(-n3cccn3)nc3cc(OC)ccc23)CN1C(=O)[C@@H](NC(=O)NC(C)(C)C)C(C)(C)C)C(=O)C(=O)NC1CC1 (stereo partly shown) [Example 1] | IC50 [1]: 24 nM; liver hydroxyproline [2]: decreased; plasma ALT [2]: decreased; plasma AST [2]: decreased
45 | CCC[C@H](NC(=O)[C@@H]1C[C@@H](Oc2nc(-c3ccccn3)nc3sccc23)CN1C(=O)[C@@H](NC(=O)NC(C)(C)C)C(C)(C)C)C(=O)C(=O)NC1CC1 [Example 16, (2S,4R)-1-((S)-2-(3-tert-butylureido)-3,3-dimethylbutanoyl)-N-((S)-1-(cyclopropylamino)-1,2-dioxohexan-3-yl)-4-(2-(pyridin-2-yl)thieno[2,3-d]pyrimidin-4-yloxy)pyrrolidine-2-carboxamide] | –
< 500 | COc1ccc2c(O[C@@H]3C[C@@H](C(=O)N[C@@H](CC4CCC4)C(=O)C(=O)NC4CC4)N(C(=O)[C@@H](NC(=O)NC(C)(C)C)C(C)(C)C)C3)cc(-n3cccn3)nc2c1 [Example 2, (2S,4R)-1-((S)-(3-tert-butylureido)-3,3-dimethylbutanoyl]-N-((S)-1-cyclobutyl-4-(cyclopropylamino)-3,4-dioxobutan-2-yl)-4-(7-methoxy-2-(1H-pyrazol-1-yl)-quinolin-4-yloxy)pyrrolidine-2-carboxamide] | IC50 [1]: 19 nM; liver hydroxyproline [2]: reduces; plasma ALT [2]: reduces; plasma AST [2]: reduces
27 | CCC[C@H](NC(=O)[C@@H]1C[C@@H](Oc2nccc3cc(OC)ccc23)CN1C(=O)[C@@H](NC(=O)NC(C)(C)C)C(C)(C)C)C(=O)C(=O)NC1CC1 [Example 9] | –
28 | CCCC[C@H](NC(=O)[C@@H]1CC(Oc2nccc3cc(OC)ccc23)CN1C(=O)[C@@H](NC(=O)NC(C)(C)C)C(C)(C)C)C(=O)C(=O)NC1CC1 (stereo partly shown) [Example 13] | –
56 | COc1ccc2c(O[C@@H]3C[C@@H](C(=O)N[C@@H](CC4CC4)C(=O)C(=O)NC4CC4)N(C(=O)[C@@H](NC(=O)NC(C)(C)C)C(C)(C)C)C3)nccc2c1 [Example 10, (2S,4R)-1-((S)-2-(3-tert-Butylureido)-3,3-dimethylbutanoyl)-N-((S)-1-cyclopropyl-4-(cyclopropylamino)-3,4-dioxobutan-2-yl)-4-(6-methoxyisoquinolin-1-yloxy)-pyrrolidine-2-carboxamide] | –
61 | CCC[C@H](NC(=O)[C@@H]1C[C@@H](Oc2cc(-n3cccn3)nc3cc(OC)ccc23)CN1C(=O)[C@@H](NC(=O)NCC(C)(C)C)C(C)(C)C)C(=O)C(=O)NC1CC1 [(2S,4R)-N-((S)-1-(cyclopropylamino)-1,2-dioxohexan-3-yl)-1-((S)-3,3-dimethyl-2-(3-neopentylureido)butanoyl)-4-(7-methoxy-2-(1H-pyrazol-1-yl)quinolin-4-yloxy)pyrrolidine-2-carboxamide] | –
33 | CCC[C@H](NC(=O)[C@@H]1C[C@@H](Oc2nc(-c3ccccn3)nc3ccsc23)CN1C(=O)[C@@H](NC(=O)NC(C)(C)C)C(C)(C)C)C(=O)C(=O)NC1CC1 [Example 17, (2S,4R)-1-((S)-2-(3-tert-butylureido)-3,3-dimethylbutanoyl)-N-((S)-1-(cyclopropylamino)-1,2-dioxohexan-3-yl)-4-(2-(pyridin-2-yl)thieno[3,2-d]pyrimidin-4-yloxy)pyrrolidine-2-carboxamide] | –
72 | CCC[C@H](NC(=O)[C@@H]1C[C@@H](Oc2nc(-c3cc(C)nn3C)nc3ccsc23)CN1C(=O)[C@@H](NC(=O)NC(C)(C)C)C(C)(C)C)C(=O)C(=O)NC1CC1 [Example 18, (2S,4R)-1-((S)-2-(3-tert-butylureido)-3,3-dimethylbutanoyl)-N-((S)-1-(cyclopropylamino)-1,2-dioxohexan-3-yl)-4-(2-(1,3-dimethyl-1H-pyrazol-5-yl)thieno[3,2-d]pyrimidin-4-yloxy)pyrrolidine-2-carboxamide] | –
45 | CCC[C@H](NC(=O)[C@@H]1C[C@@H](Oc2nccc3cc(OCC)ccc23)CN1C(=O)[C@@H](NC(=O)NC(C)(C)C)C(C)(C)C)C(=O)C(=O)NC1CC1 [Example 12, (2S,4R)-1-((S)-2-(3-tert-Butylureido)-3,3-dimethylbutanoyl)-N-((S)-1-(cyclopropylamino)-1,2-dioxohexan-3-yl)-4-(6-ethoxyisoquinolin-1-yloxy)-pyrrolidine-2-carboxamide] | –
32 | CCC[C@H](NC(=O)[C@@H]1C[C@@H](Oc2nc(C)cc3cc(OC)ccc23)CN1C(=O)[C@@H](NC(=O)NC(C)(C)C)C(C)(C)C)C(=O)C(=O)NC1CC1 [Example 15, (2S,4R)-1-((S)-2-(3-tert-butylureido)-3,3-dimethylbutanoyl)-N-((S)-1-(cyclopropylamino)-1,2-dioxohexan-3-yl)-4-(6-methoxy-3-methylisoquinolin-1-yloxy)pyrrolidine-2-carboxamide] | –
49 | CCOc1ccc2c(O[C@@H]3C[C@@H](C(=O)N[C@@H](CC4CC4)C(=O)C(=O)NC4CC4)N(C(=O)[C@@H](NC(=O)NC(C)(C)C)C(C)(C)C)C3)nccc2c1 [Example 11, (2S,4R)-1-((S)-2-(3-tert-Butylureido)-3,3-dimethylbutanoyl)-N-((S)-1-cyclopropyl-4-(cyclopropylamino)-3,4-dioxobutan-2-yl)-4-(6-ethoxyisoquinolin-1-yloxy)-pyrrolidine-2-carboxamide] | –
